From patent US20240254118A1, “PRMT5 INHIBITORS AND USES THEREOF” (Gilead Sciences, Inc., priority 2022, published 2024) come the findings set out here.

One may read the EC50 as the concentration giving half of the maximal effect. What is called CC50 is the concentration that lowers cell viability or growth by half. Read a high CC50 as better tolerance by the cells.

Bounds are passed on as bounds.

The test system of assay [1] is SDMA signal (PRMT5 inhibition) in HCT116 MTAP-deleted cells. Briefly: Symmetric di-methyl arginine image-based high content screen assay (SDMA assay), HCT116 MTAP-deleted. It counts as cell-based. The conditions noted are these: SDMA assay; for EC50: Homo sapiens, HCT-116, 72 h, 3 days of treatment, cell line not given, taken as HCT116 MTAP-deleted, read-out: EC50 (SDMA assay); for EC50 selectivity (SDMA assay): taken as HCT116 WT vs MTAP-deleted. In outline: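 Read-out: per-cell mean SDMA immunofluorescence (Alexa Fluor 488 secondary), cells segmented by DAPI on a high-content imager. Compound exposure in HCT116 MTAP-deleted cells lasted until fixation on Day 3; overnight 4° C primary anti-SDMA antibody staining.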

Assay [2] relates to HCT116 MTAP-deleted cells. Kind of assay: Cell viability assay (CellTiter-Glo, 7 days), HCT116 MTAP-deleted. The conditions noted are these: Homo sapiens, HCT-116, 168 h. A general note: In ATP-based viability assays light output follows the ATP content of the culture.

As for `CC(=O)N(C)N(Cc1ccc(C#N)cc1Cl)C(=O)c1ccc2nc(N)c3cnn(C)c3c2c1` [Example 406, N′-acetyl-4-amino-N-(2-chloro-4-cyanobenzyl)-N′,1-dimethyl-1H-pyrazolo[4,3-c]quinoline-8-carbohydrazide], in assay [1], the EC50 was less than 1 nM and the “EC50 selectivity (SDMA assay)” value amounted to 212. In addition, the CC50 in assay [2] was less than 100 nM.

With `CC(=O)N(C)N(Cc1c(F)cc(F)cc1F)C(=O)c1ccc2nc(N)c3cnn(C)c3c2c1` [Example 413, N′-acetyl-4-amino-N′,1-dimethyl-N-(2,4,6-trifluorobenzyl)-1H-pyrazolo[4,3-c]quinoline-8-carbohydrazide], in assay [1], the EC50 was less than 1 nM and the “EC50 selectivity (SDMA assay)” value amounted to 497. Further, in assay [2], the CC50 is less than 100 nM.

`CC(=O)N(C)N(Cc1c(F)cc(C(F)(F)F)cc1F)C(=O)c1ccc2nc(N)c3cnn(C)c3c2c1` [Example 415, N′-acetyl-4-amino-N-(2,6-difluoro-4-(trifluoromethyl)benzyl)-N′,1-dimethyl-1H-pyrazolo[4,3-c]quinoline-8-carbohydrazide]: in assay [1], the EC50 is less than 1 nM and the “EC50 selectivity (SDMA assay)” value is recorded as 26. The compound further yielded a CC50 in assay [2] of less than 100 nM.

As to `CC(=O)N(C)N(Cc1ccc(C(F)(F)F)nc1C)C(=O)c1ccc2nc(N)c3cnn(C)c3c2c1` [Example 416, N′-acetyl-4-amino-N′,1-dimethyl-N-((2-methyl-6-(trifluoromethyl)pyridin-3-yl)methyl)-1H-pyrazolo[4,3-c]quinoline-8-carbohydrazide], in assay [1], the EC50 fell in the range of 1 to 5 nM and the “EC50 selectivity (SDMA assay)” value came out at 133. In addition, the CC50 in assay [2] is less than 100 nM.

As to `CC(=O)N(C)N(Cc1cc2c(C(F)(F)F)cccc2s1)C(=O)c1ccc2nc(N)c3cnn(C)c3c2c1` [Example 418, N′-acetyl-4-amino-N′,1-dimethyl-N-((4-(trifluoromethyl)benzo[b]thiophen-2-yl)methyl)-1H-pyrazolo[4,3-c]quinoline-8-carbohydrazide], in assay [1], the EC50 is 1 to 5 nM and the “EC50 selectivity (SDMA assay)” value is 114. Also, in assay [2], the cytotoxic concentration (CC50) was less than 100 nM.

`CC(=O)N(C)N(Cc1cc2cccc(C(F)(F)F)c2s1)C(=O)c1ccc2nc(N)c3cnn(C)c3c2c1` [Example 419, N′-acetyl-4-amino-N′,1-dimethyl-N-((7-(trifluoromethyl)benzo[b]thiophen-2-yl)methyl)-1H-pyrazolo[4,3-c]quinoline-8-carbohydrazide]: in assay [1], the EC50 was 1 to 5 nM and the “EC50 selectivity (SDMA assay)” value turned out to be 118. In assay [2], this compound showed a 50% cytotoxic concentration (CC50) of less than 100 nM.

`Cn1ncc2c(N)nc3ccc(C(=O)N(Cc4nc5cc(C(F)(F)F)ccc5n4C)N4CCCC4=O)cc3c21` [Example 420, 4-amino-1-methyl-N-((1-methyl-5-(trifluoromethyl)-1H-benzo[d]imidazol-2-yl)methyl)-N-(2-oxopyrrolidin-1-yl)-1H-pyrazolo[4,3-c]quinoline-8-carboxamide]: in assay [1], the EC50 is less than 1 nM and the “EC50 selectivity (SDMA assay)” value is recorded as 87. In assay [2], this compound gave a CC50 of less than 100 nM.

For `CC(=O)N(C)N(Cc1cnc(-c2ccccc2)n1C)C(=O)c1cc2c(cc1F)nc(N)c1cnn(C)c12` [Example 421, N′-acetyl-4-amino-7-fluoro-N′,1-dimethyl-N-((1-methyl-2-phenyl-1H-imidazol-5-yl)methyl)-1H-pyrazolo[4,3-c]quinoline-8-carbohydrazide], in assay [1], the EC50 lay in the range of 1 to 5 nM and the “EC50 selectivity (SDMA assay)” value amounted to 73. For the same compound, the CC50 in assay [2] was less than 100 nM.

Regarding `CC(=O)N(C)N(Cc1nc2cc(C(F)(F)F)ccc2n1C)C(=O)c1ccc2nc(N)c3cnn(C)c3c2c1` [Example 423, N′-acetyl-4-amino-N′,1-dimethyl-N-((1-methyl-5-(trifluoromethyl)-1H-benzo[d]imidazol-2-yl)methyl)-1H-pyrazolo[4,3-c]quinoline-8-carbohydrazide], in assay [1], the EC50 lay in the range of 1 to 5 nM and the “EC50 selectivity (SDMA assay)” value is 149. In assay [2], this compound returned a CC50 of less than 100 nM.

With `CC(=O)N(C)N(Cc1ccn(-c2ccc(F)cc2)n1)C(=O)c1ccc2nc(N)c3cnn(C)c3c2c1` [Example 432, N′-acetyl-4-amino-N-((1-(4-fluorophenyl)-1H-pyrazol-3-yl)methyl)-N′,1-dimethyl-1H-pyrazolo[4,3-c]quinoline-8-carbohydrazide], in assay [1], the EC50 lay within 1 to 5 nM and the “EC50 selectivity (SDMA assay)” value is reported as 297. Also, in assay [2], the CC50 is less than 100 nM.

Regarding `CN(C(=O)C1CC1)N(Cc1nc2cc(C(F)(F)F)ccc2n1C)C(=O)c1ccc2nc(N)c3cnn(C)c3c2c1` [Example 437, 4-amino-N′-(cyclopropanecarbonyl)-N′,1-dimethyl-N-((1-methyl-5-(trifluoromethyl)-1H-benzo[d]imidazol-2-yl)methyl)-1H-pyrazolo[4,3-c]quinoline-8-carbohydrazide], in assay [1], the EC50 fell in the range of 1 to 5 nM and the “EC50 selectivity (SDMA assay)” value was 256. The compound further came in with a CC50 in assay [2] of less than 100 nM.

As for `CC(=O)N(C)N(Cc1nc2cccc(Cl)c2n1C)C(=O)c1ccc2nc(N)c3cnn(C)c3c2c1` [Example 438, N′-acetyl-4-amino-N-((7-chloro-1-methyl-1H-benzo[d]imidazol-2-yl)methyl)-N′,1-dimethyl-1H-pyrazolo[4,3-c]quinoline-8-carbohydrazide], in assay [1], the EC50 was less than 1 nM and the “EC50 selectivity (SDMA assay)” value is 141. This compound registered a CC50 in assay [2] of less than 100 nM.

For `Cn1ncc2c(N)nc3ccc(C(=O)N(Cc4ccc(Cl)cc4F)NC(=O)C4CC4)cc3c21` [Example 439, 4-amino-N-(4-chloro-2-fluorobenzyl)-N′-(cyclopropanecarbonyl)-1-methyl-1H-pyrazolo[4,3-c]quinoline-8-carbohydrazide], in assay [1], the EC50 was less than 1 nM and the “EC50 selectivity (SDMA assay)” value was 51. This compound also came in with a CC50 in assay [2] of less than 100 nM.

Take `CC(=O)N(C)N(Cc1sc2ccccc2c1Cl)C(=O)c1ccc2nc(N)c3cnn(C)c3c2c1` [Example 442, N′-acetyl-4-amino-N-((3-chlorobenzo[b]thiophen-2-yl)methyl)-N′,1-dimethyl-1H-pyrazolo[4,3-c]quinoline-8-carbohydrazide]: in assay [1], the EC50 is less than 1 nM and the “EC50 selectivity (SDMA assay)” value was found to be 163. The compound further registered a 50% cytotoxic concentration (CC50) in assay [2] of less than 100 nM.

For the compound `Cn1ncc2c(N)nc3ccc(C(=O)N(Cc4ccc(C(F)(F)F)cn4)NC(=O)C4CC4)cc3c21` [Example 443, 4-amino-N′-(cyclopropanecarbonyl)-1-methyl-N-((5-(trifluoromethyl)pyridin-2-yl)methyl)-1H-pyrazolo[4,3-c]quinoline-8-carbohydrazide], in assay [1], the 50% effective concentration (EC50) was less than 1 nM and the “EC50 selectivity (SDMA assay)” value was found to be 400. This compound also yielded a CC50 in assay [2] of less than 100 nM.

With `CC(=O)N(C)N(Cc1sc2ccccc2c1Br)C(=O)c1ccc2nc(N)c3cnn(C)c3c2c1` [Example 444, N′-acetyl-4-amino-N-((3-bromobenzo[b]thiophen-2-yl)methyl)-N′,1-dimethyl-1H-pyrazolo[4,3-c]quinoline-8-carbohydrazide], in assay [1], the EC50 was less than 1 nM and the “EC50 selectivity (SDMA assay)” value is recorded as 117. Besides, the CC50 in assay [2] was less than 100 nM.

In the case of `CC(=O)NN(Cc1ccc(C(F)(F)F)cc1F)C(=O)c1ccc2nc(N)c3cnn(C)c3c2c1` [Example 445, N′-acetyl-4-amino-N-(2-fluoro-4-(trifluoromethyl)benzyl)-1-methyl-1H-pyrazolo[4,3-c]quinoline-8-carbohydrazide], in assay [1], the 50% effective concentration (EC50) is less than 1 nM and the “EC50 selectivity (SDMA assay)” value is reported as 69. The CC50 in assay [2] is less than 100 nM.

`CC(=O)N(C)N(Cc1ccc(OC(F)F)cc1Cl)C(=O)c1ccc2nc(N)c3cnn(C)c3c2c1` [Example 447, N′-acetyl-4-amino-N-(2-chloro-4-(difluoromethoxy)benzyl)-N′,1-dimethyl-1H-pyrazolo[4,3-c]quinoline-8-carbohydrazide]: in assay [1], the EC50 was less than 1 nM and the “EC50 selectivity (SDMA assay)” value amounted to 49. The 50% cytotoxic concentration (CC50) in assay [2] was less than 100 nM.

For `CC(=O)N(C)N(Cc1c(Cl)ccc(F)c1F)C(=O)c1ccc2nc(N)c3cnn(C)c3c2c1` [Example 448, N′-acetyl-4-amino-N-(6-chloro-2,3-difluorobenzyl)-N′,1-dimethyl-1H-pyrazolo[4,3-c]quinoline-8-carbohydrazide], in assay [1], the EC50 was in the range of 1 to 5 nM and the “EC50 selectivity (SDMA assay)” value was 224. The compound also came in with a CC50 in assay [2] of less than 100 nM.

Take `CN(Cc1ccccn1)N(Cc1ccc(C(F)(F)F)cn1)C(=O)c1cc2c(cc1F)nc(N)c1cnn(C)c12` [Example 449, 4-amino-7-fluoro-N′,1-dimethyl-N′-(pyridin-2-ylmethyl)-N-((5-(trifluoromethyl)pyridin-2-yl)methyl)-1H-pyrazolo[4,3-c]quinoline-8-carbohydrazide]: in assay [1], the EC50 was in the range of 1 to 5 nM and the “EC50 selectivity (SDMA assay)” value is recorded as 62. For the same compound, the CC50 in assay [2] was less than 100 nM.

On to `CC(=O)N(C)N(Cc1cc(F)c(F)cc1Cl)C(=O)c1ccc2nc(N)c3cnn(C)c3c2c1` [Example 450, N′-acetyl-4-amino-N-(2-chloro-4,5-difluorobenzyl)-N′,1-dimethyl-1H-pyrazolo[4,3-c]quinoline-8-carbohydrazide], for which, in assay [1], the EC50 is less than 1 nM and the “EC50 selectivity (SDMA assay)” value was determined as 394. Besides, the CC50 in assay [2] is less than 100 nM.

In the case of `CC(=O)N(C)N(Cc1ccc(F)cc1Cl)C(=O)c1ccc2nc(N)c3cnn(C)c3c2c1` [Example 451, N′-acetyl-4-amino-N-(2-chloro-4-fluorobenzyl)-N′,1-dimethyl-1H-pyrazolo[4,3-c]quinoline-8-carbohydrazide], in assay [1], the EC50 is less than 1 nM and the “EC50 selectivity (SDMA assay)” value came to 111. In assay [2], this compound displayed a CC50 of less than 100 nM.
